The assay deals with T1, human ROR1 (Homo sapiens, UniProt Q01973).
T1 construct: host or cells: HEK 293T cells, Tet-on system induced with doxycycline
Nature of the assay: ROR1 high content cell-based binding assay. The settings on record: read-out: ROR1 Binding 293T Human HC Cell Based Assay IC50. In a few lines:
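Doxycycline-induced 293T cells expressing human ROR1, seeded overnight, were treated with compound plus 5-FAM-labeled ROR1-binding probe peptide (30 nM final) for 1 h at 37 °C. After washing and formaldehyde/Hoechst fixation, cell-bound probe fluorescence was read by high-content imaging.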

Among the data in patent US20240116988A1, “ANTI-ROR1 MACROCYCLIC PEPTIDES AND COMPOSITIONS” (BRISTOL-MYERS SQUIBB COMPANY, priority 2022, published 2024) are IC50 values, retold here.

pIC50: −log10 of the molar value. Positions of bridges follow the written chain, without caps; N, C: chain ends. Non-standard residues stand in square brackets, D forms with d. Residues, ends and D or L forms follow the SMILES beside them. ξ: configuration not given here. Bip = N[C@@H](Cc1ccc(-c2ccccc2)cc1)C(=O)O; NMeY = CN[C@@H](Cc1ccc(O)cc1)C(=O)O; NMeF = CN[C@@H](Cc1ccccc1)C(=O)O; Thr(3ξ) = CC(O)[C@H](N)C(=O)O; ξY = NC(Cc1ccc(O)cc1)C(=O)O; ξF = NC(Cc1ccccc1)C(=O)O; ξL = CC(C)CC(N)C(=O)O; ξC = NC(CS)C(=O)O; ξA = CC(N)C(=O)O; Sar = CNCC(=O)O

What is called pIC50 is −log10 of the IC50, conventionally taken in molar units.

T1 sequence (Q01973 30-937): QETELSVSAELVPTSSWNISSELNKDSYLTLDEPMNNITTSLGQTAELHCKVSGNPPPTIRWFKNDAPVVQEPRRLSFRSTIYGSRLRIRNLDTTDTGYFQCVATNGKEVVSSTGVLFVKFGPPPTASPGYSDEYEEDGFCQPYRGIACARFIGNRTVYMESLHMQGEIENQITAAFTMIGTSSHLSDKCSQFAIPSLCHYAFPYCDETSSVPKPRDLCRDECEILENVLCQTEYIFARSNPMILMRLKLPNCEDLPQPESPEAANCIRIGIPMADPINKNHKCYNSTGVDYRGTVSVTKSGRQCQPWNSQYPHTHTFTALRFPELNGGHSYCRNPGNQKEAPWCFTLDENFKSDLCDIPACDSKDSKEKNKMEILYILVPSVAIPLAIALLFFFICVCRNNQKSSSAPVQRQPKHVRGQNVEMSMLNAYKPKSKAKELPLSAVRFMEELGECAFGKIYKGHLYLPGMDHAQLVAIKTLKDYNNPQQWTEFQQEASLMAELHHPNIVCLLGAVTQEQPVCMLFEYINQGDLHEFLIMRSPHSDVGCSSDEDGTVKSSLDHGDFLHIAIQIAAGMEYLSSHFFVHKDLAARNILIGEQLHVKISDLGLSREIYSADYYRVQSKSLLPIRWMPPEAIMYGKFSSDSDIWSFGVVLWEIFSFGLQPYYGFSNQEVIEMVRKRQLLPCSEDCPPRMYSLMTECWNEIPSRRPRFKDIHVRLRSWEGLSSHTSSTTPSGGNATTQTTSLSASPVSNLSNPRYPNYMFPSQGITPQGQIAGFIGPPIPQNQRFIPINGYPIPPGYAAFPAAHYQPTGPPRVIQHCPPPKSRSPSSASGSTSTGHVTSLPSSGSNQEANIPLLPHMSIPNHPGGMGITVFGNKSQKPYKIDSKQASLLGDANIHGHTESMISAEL

With `CC(C)C[C@@H]1NC(=O)[C@H](CC(N)=O)NC(=O)[C@H](Cc2ccccc2)N(C)C(=O)CNC(=O)[C@H](Cc2ccc(O)cc2)NC(=O)[C@H](Cc2ccccc2)NC(=O)CSCC(C(N)=O)NC(=O)[C@H](Cc2c[nH]c3ccccc23)NC(=O)[C@H](Cc2ccccc2)NC1=O` (some centres unmarked) [Example 1104] ({CH2CO}-FYG[NMeF]NLFW[ξC]-NH2; thioether N-9), the negative-log IC50 (pIC50) is 7.51. In the case of `CC(C)C[C@@H]1NC(=O)CNC(=O)[C@H](Cc2ccccc2)N(C)C(=O)CNC(=O)[C@H](Cc2ccc(O)cc2)NC(=O)[C@H](Cc2ccccc2)NC(=O)CSC[C@@H](C(N)=O)NC(=O)[C@H](Cc2c[nH]c3ccccc23)NC(=O)[C@H](Cc2ccc(O)cc2)NC1=O` [Example 1105] ({CH2CO}-FYG[NMeF]GLYWC-NH2; thioether N-9) it was 6.17. The figure for `CC(C)C[C@@H]1NC(=O)[C@H](CC(C)C)NC(=O)[C@H](Cc2ccccc2)N(C)C(=O)CNC(=O)[C@H](Cc2ccc(O)cc2)NC(=O)[C@H](Cc2ccccc2)NC(=O)CSC[C@@H](C(N)=O)NC(=O)[C@H](Cc2c[nH]c3ccccc23)NC(=O)[C@H](Cc2ccc(O)cc2)NC1=O` [Example 1106] ({CH2CO}-FYG[NMeF]LLYWC-NH2; thioether N-9) is 6.32; for `CC(C)C[C@@H]1NC(=O)C(C)NC(=O)[C@H](Cc2ccccc2)N(C)C(=O)CNC(=O)[C@H](Cc2ccc(O)cc2)NC(=O)[C@H](Cc2ccccc2)NC(=O)CSC[C@@H](C(N)=O)NC(=O)[C@H](Cc2c[nH]c3ccccc23)NC(=O)[C@H](Cc2ccc(O)cc2)NC1=O` (some centres unmarked) [Example 1107] ({CH2CO}-FYG[NMeF][ξA]LYWC-NH2; thioether N-9) it is 6.26. For the molecule `CC(C)C[C@@H]1NC(=O)[C@H](CC(N)=O)NC(=O)[C@H](Cc2ccccc2)N(C)C(=O)CNC(=O)[C@H](Cc2ccccc2)NC(=O)[C@H](Cc2ccccc2)NC(=O)CSC[C@@H](C(N)=O)NC(=O)[C@H](Cc2c[nH]c3ccccc23)NC(=O)[C@H](Cc2ccc(O)cc2)NC1=O` [Example 1108] ({CH2CO}-FFG[NMeF]NLYWC-NH2; thioether N-9), the pIC50 was 6.39. On to `CSCC[C@@H]1NC(=O)[C@H](Cc2ccccc2)N(C)C(=O)CNC(=O)[C@H](Cc2ccc(O)cc2)NC(=O)[C@H](Cc2ccccc2)NC(=O)CSC[C@@H](C(N)=O)NC(=O)[C@H](Cc2c[nH]c3ccccc23)NC(=O)[C@H](Cc2ccc(O)cc2)NC(=O)[C@H](CC(C)C)NC1=O` [Example 1109] ({CH2CO}-FYG[NMeF]MLYWC-NH2; thioether N-9), for which the pIC50 was 6.24. In the case of `CC(C)C[C@@H]1NC(=O)[C@H](CCC(N)=O)NC(=O)[C@H](Cc2ccccc2)N(C)C(=O)CNC(=O)[C@H](Cc2ccc(O)cc2)NC(=O)[C@H](Cc2ccccc2)NC(=O)CSC[C@@H](C(N)=O)NC(=O)[C@H](Cc2c[nH]c3ccccc23)NC(=O)[C@H](Cc2ccc(O)cc2)NC1=O` [Example 1110] ({CH2CO}-FYG[NMeF]QLYWC-NH2; thioether N-9), the pIC50 was 6.44. Regarding `CC(C)C[C@@H]1NC(=O)[C@H](CO)NC(=O)[C@H](Cc2ccccc2)N(C)C(=O)CNC(=O)[C@H](Cc2ccc(O)cc2)NC(=O)[C@H](Cc2ccccc2)NC(=O)CSC[C@@H](C(N)=O)NC(=O)[C@H](Cc2c[nH]c3ccccc23)NC(=O)[C@H](Cc2ccc(O)cc2)NC1=O` [Example 1111] ({CH2CO}-FYG[NMeF]SLYWC-NH2; thioether N-9), the pIC50 was 6.32.

On to `CC(C)C[C@@H]1NC(=O)[C@H](Cc2ccc(O)cc2)NC(=O)[C@H](Cc2ccccc2)N(C)C(=O)CNC(=O)[C@H](Cc2ccc(O)cc2)NC(=O)C(Cc2ccccc2)NC(=O)CSC[C@@H](C(=O)NCC(N)=O)NC(=O)[C@H](Cc2c[nH]c3ccccc23)NC(=O)C(Cc2ccc(O)cc2)NC1=O` (some centres unmarked) [Example 1112] ({CH2CO}-[ξF]YG[NMeF]YL[ξY]WCG-NH2; thioether N-9), for which the pIC50 is 6.83.

In the case of `CC(C)CC1NC(=O)[C@H](Cc2ccc(O)cc2)NC(=O)[C@H](Cc2ccccc2)NC(=O)CSC[C@@H](C(=O)NCC(N)=O)NC(=O)[C@H](Cc2ccccc2)N(C)C(=O)[C@H](Cc2ccc(O)cc2)NC(=O)[C@H](Cc2c[nH]c3ccccc23)NC(=O)C(Cc2ccc(O)cc2)NC(=O)[C@H](C(C)C)NC1=O` (some centres unmarked) [Example 1113] ({CH2CO}-FY[ξL]V[ξY]WY[NMeF]CG-NH2; thioether N-9), the pIC50 is 7.00.

Take `CC(C)C[C@@H]1NC(=O)[C@H](C(C)O)NC(=O)[C@H](Cc2ccccc2)N(C)C(=O)CNC(=O)[C@H](Cc2ccc(O)cc2)NC(=O)[C@H](Cc2ccccc2)NC(=O)CSC[C@@H](C(N)=O)NC(=O)[C@H](Cc2c[nH]c3ccccc23)NC(=O)[C@H](Cc2ccc(O)cc2)NC1=O` (some centres unmarked) [Example 1114] ({CH2CO}-FYG[NMeF][Thr(3ξ)]LYWC-NH2; thioether N-9): the pIC50 was 6.33.

For `CC(C)C[C@@H]1NC(=O)[C@H](Cc2ccc(O)cc2)NC(=O)[C@H](Cc2ccccc2)N(C)C(=O)CNC(=O)[C@H](Cc2ccc(O)cc2)NC(=O)[C@H](Cc2ccccc2)NC(=O)CSC[C@@H](C(N)=O)NC(=O)[C@H](Cc2c[nH]c3ccccc23)NC(=O)[C@H](Cc2ccc(O)cc2)NC1=O` [Example 1115] ({CH2CO}-FYG[NMeF]YLYWC-NH2; thioether N-9), the pIC50 is 7.03. In the case of `CC(C)C[C@@H]1NC(=O)[C@@H](C)NC(=O)[C@H](Cc2ccccc2)N(C)C(=O)CNC(=O)[C@H](Cc2ccc(O)cc2)NC(=O)[C@H](Cc2ccccc2)NC(=O)CSC[C@@H](C(N)=O)NC(=O)[C@H](Cc2c[nH]c3ccccc23)NC(=O)[C@H](Cc2ccc(O)cc2)NC1=O` [Example 1116] ({CH2CO}-FYG[NMeF][dA]LYWC-NH2; thioether N-9), the pIC50 was 6.74. On to `CC(C)C[C@@H]1NC(=O)[C@H](Cc2c[nH]cn2)NC(=O)[C@H](Cc2ccccc2)N(C)C(=O)CNC(=O)[C@H](Cc2ccc(O)cc2)NC(=O)[C@@H](Cc2ccccc2)NC(=O)CSC[C@@H](C(N)=O)NC(=O)[C@H](Cc2c[nH]c3ccccc23)NC(=O)[C@H](Cc2ccc(O)cc2)NC1=O` [Example 1117] ({CH2CO}-[dF]YG[NMeF]HLYWC-NH2; thioether N-9), for which the pIC50 is 7.16. In the case of `CC(C)C[C@@H]1NC(=O)[C@H](CC(N)=O)NC(=O)[C@H](Cc2ccccc2)N(C)C(=O)CNC(=O)[C@H](Cc2ccc(O)cc2)NC(=O)[C@H](Cc2ccccc2)NC(=O)CSC[C@@H](C(=O)NCC(N)=O)NC(=O)[C@H](Cc2c[nH]c3ccccc23)NC(=O)[C@H](Cc2ccc(O)cc2)NC1=O` [Example 1118] ({CH2CO}-FYG[NMeF]NLYWCG-NH2; thioether N-9), the pIC50 is 6.82. Take `CC(C)C[C@@H]1NC(=O)[C@H](CC(N)=O)NC(=O)[C@H](Cc2ccccc2)N(C)C(=O)CNC(=O)[C@H](Cc2ccc(O)cc2)NC(=O)[C@H](Cc2ccc(O)cc2)NC(=O)CSC[C@@H](C(N)=O)NC(=O)[C@H](Cc2c[nH]c3ccccc23)NC(=O)[C@H](Cc2ccc(O)cc2)NC1=O` [Example 1120] ({CH2CO}-YYG[NMeF]NLYWC-NH2; thioether N-9): the pIC50 is 6.10. For `CC(C)C[C@@H]1NC(=O)CNC(=O)[C@H](Cc2ccccc2)N(C)C(=O)CNC(=O)[C@H](Cc2ccc(O)cc2)NC(=O)[C@H](Cc2ccccc2)NC(=O)CSC[C@@H](C(N)=O)NC(=O)[C@H](Cc2c[nH]c3ccccc23)NC(=O)[C@H](Cc2ccc(O)cc2)NC1=O` [Example 1121] ({CH2CO}-FYG[NMeF]GLYWC-NH2; thioether N-9), the pIC50 was 6.42. For `CC(C)C[C@@H]1NC(=O)[C@@H](CCC(N)=O)NC(=O)[C@H](Cc2ccccc2)N(C)C(=O)CNC(=O)[C@H](Cc2ccc(O)cc2)NC(=O)[C@H](Cc2ccccc2)NC(=O)CSC[C@@H](C(N)=O)NC(=O)[C@H](Cc2c[nH]c3ccccc23)NC(=O)[C@H](Cc2ccc(O)cc2)NC1=O` [Example 1122] ({CH2CO}-FYG[NMeF][dQ]LYWC-NH2; thioether N-9), the pIC50 was 6.25. The figure for `CC(C)C[C@@H]1NC(=O)[C@H](CC(N)=O)NC(=O)[C@H](Cc2ccc(O)cc2)N(C)C(=O)CNC(=O)[C@H](Cc2ccc(O)cc2)NC(=O)[C@H](Cc2ccccc2)NC(=O)CSC[C@@H](C(N)=O)NC(=O)[C@H](Cc2c[nH]c3ccccc23)NC(=O)[C@H](Cc2ccc(O)cc2)NC1=O` [Example 1123] ({CH2CO}-FYG[NMeY]NLYWC-NH2; thioether N-9) is 6.90; for `CC(C)C[C@@H]1NC(=O)[C@H](Cc2ccccc2)NC(=O)CSC[C@@H](C(=O)NCC(N)=O)NC(=O)[C@H](C(C)C)NC(=O)[C@H](Cc2ccccc2)N(C)C(=O)[C@H](CC(C)C)NC(=O)[C@H](Cc2c[nH]c3ccccc23)NC(=O)CN(C)C(=O)CNC(=O)[C@H](C(C)C)NC(=O)[C@H](Cc2c[nH]c3ccccc23)NC1=O` [Example 1201] it is 7.41; for `CC(C)C[C@@H]1NC(=O)[C@H](Cc2ccccc2)NC(=O)CSC[C@@H](C(N)=O)NC(=O)[C@H](C(C)C)NC(=O)[C@H](Cc2ccccc2)N(C)C(=O)[C@H](CC(C)C)NC(=O)[C@H](Cc2c[nH]c3ccccc23)NC(=O)CN(C)C(=O)CNC(=O)[C@H](C(C)C)NC(=O)[C@H](Cc2c[nH]c3ccccc23)NC1=O` [Example 1202] ({CH2CO}-FLWVG[Sar]WL[NMeF]VC-NH2; thioether N-11) it is 7.17. The figure for `CC(C)C[C@@H]1NC(=O)[C@H](Cc2ccccc2)NC(=O)CSC[C@@H](C(N)=O)NC(=O)[C@H](C(C)C)NC(=O)[C@H](Cc2ccccc2)N(C)C(=O)[C@H](CC(C)C)NC(=O)[C@H](Cc2c[nH]c3ccccc23)NC(=O)CN(C)C(=O)CNC(=O)[C@H](C(C)C)NC(=O)[C@H](Cc2c[nH]c3ccccc23)NC1=O` [Example 1203] ({CH2CO}-FLWVG[Sar]WL[NMeF]VC-NH2; thioether N-11) is 7.07. `CC(C)C[C@@H]1NC(=O)[C@H](Cc2ccccc2)NC(=O)CSC[C@@H](C(N)=O)NC(=O)[C@H](C(C)C)NC(=O)[C@H](Cc2ccccc2)N(C)C(=O)[C@H](CC(C)C)NC(=O)[C@H](Cc2c[nH]c3ccccc23)NC(=O)CN(C)C(=O)CNC(=O)[C@H](C(C)C)NC(=O)[C@H](Cc2ccc(-c3ccccc3)cc2)NC1=O` [Example 1204] ({CH2CO}-FL[Bip]VG[Sar]WL[NMeF]VC-NH2; thioether N-11): the pIC50 was 6.64.
